# In US11173175B2, “Uridine diphosphate compounds as mobilizers of hematopoietic progenitor cells” (University of Pittsburgh—Of the Commonwealth System of …, priority 2012, dated 2021):
# Entries after “also recorded” stand apart in the source; their conditions may differ.
# T1: P2Y14 receptor (Homo sapiens, UniProt Q15391)
# T1 sequence (Q15391 1-338): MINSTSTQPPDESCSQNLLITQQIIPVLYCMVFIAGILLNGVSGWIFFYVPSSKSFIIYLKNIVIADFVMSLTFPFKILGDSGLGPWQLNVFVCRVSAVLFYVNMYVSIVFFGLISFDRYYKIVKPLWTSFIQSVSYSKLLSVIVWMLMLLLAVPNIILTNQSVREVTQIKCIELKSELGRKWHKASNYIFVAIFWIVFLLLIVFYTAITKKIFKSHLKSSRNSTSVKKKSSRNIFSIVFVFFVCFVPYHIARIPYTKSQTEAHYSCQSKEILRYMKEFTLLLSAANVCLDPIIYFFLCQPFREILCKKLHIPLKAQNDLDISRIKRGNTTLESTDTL
# Tests used:
# P2Y14 receptor [1] = target: T1, P2Y14 receptor; conditions: cited from earlier work
# RANKL = RANKL expression by Western blot and immunohistochemistry; format: in vivo, mice; conditions: NAC 100 mg/kg/day in comparison with UDP-Glc-treated animals
# [2] = tested on: bone marrow homing of peripheral blood cells
# osteoclasts = assay: TRAP staining of femur sections; format: in vivo, mice; conditions: NAC treatment
# CXCR4 = CXCR4 expression on LSK and SLAM LSK cells; format: in vivo, mice
# Procedure: FIG. 14A-14F. […] HSPC mobilization was assessed by measuring the numbers of LSK (upper left panel) and SLAM LSK (upper right panel) cells in peripheral blood. […] Representative images of TRAP staining from each group are shown (bottom panels). […] Shown are obtained from 6-8 weeks old animals. (C) Mice (B6) were injected as described in the legend to FIG. 11A. Bone marrow cells were collected from each treatment group and stained with indicated antibodies followed by flow cytometry analysis. The data are shown as mean values of three independent experiments with standard deviation. ** p<0.01. (D) Bone marrow mononuclear cells were isolated from B6 mice treated as above. To determine the protease activity, bone marrow supernatants harvested from indicated treatment groups were analyzed by zymogram analysis as described in the Methods section. The intensity of the zymogram bands (left panels) was analyzed utilizing densitometry and expressed as arbitrary units (right panels). Densitometric analyses are represented as the ratios to vehicle-treated group (CTL) set to 1. […] (E) Mice were treated as described in the legend to FIG. 13F. Expression levels of CXCR4 were determined in bone marrow (upper panel) and peripheral blood (lower panel) cells after gating on LSK or SLAM LSK subsets. Data are expressed as mean±SD from at least two independent experiments with four mice per group. […]
# LSK and SLAM LSK cells = assay: HSPC mobilization: LSK and SLAM LSK cells quantified by flow cytometry; format: in vivo, mice
# Procedure: (§1) We used 4-6 weeks old C57BL6 and BALB/C in all the experiments. Mice received subcutaneous injections of UDP-glucose (200 mg/kg, Sigma) dissolved in sterile endotoxin-free PBS. G-CSF (Neupogen, Amgen) was administered daily at a dose of 300 μg/kg subcutaneously for 4 consecutive days as previously described (Broxmeyer et al., 2005). […] Antioxidant, N-acetyl-L-cysteine (Sigma-Aldrich), was administered subcutaneously at 100 mg/kg/day. Bone marrow cells were obtained from both femur and tibia and used for flow cytometry and Western blot analysis. All animal studies were conducted after review by the University of Pittsburgh's Institutional Animal Care and Use Committee and in accordance with the University of Pittsburgh's Policy on the Care, Welfare and Treatment of Laboratory Animals.
# Peripheral blood Lin-/Sca-1+/c-Kit+(LSK) and CD150+CD48-(SLAM) LSK cells were phenotyped using the following antibodies: lineage markers PE-Cy7-conjugated anti-CD3, anti-CD4, anti-CD8, anti-CD45R, anti-CD11b, anti-Gr-1, and anti-TER-119 (eBioscience); PE-conjugated anti-Sca-1 (eBioscience); APC-conjugated anti-c-Kit (eBioscience); perCP/Cy5.5-conjugated anti-CD150 (BioLegend); pacific Blue™-conjugated anti-CD48 (BioLegend). […] Mitochondrial superoxide level was measured using MitoSox™ (Invitrogen) within LSK cells, according to manufacturer's instructions.
# as §1, with “Mice” for “We used 4-6 weeks old C57BL6 and BALB/C in all the experiments. Mice”, “(10).” for “(Broxmeyer et al., 2005).”
# P2Y14 receptor [3] = target: T1, P2Y14 receptor; conditions: Carter et al. 2009; cited from earlier work
# [4] = tested on: white blood cell (WBC) and lineage-marker expressing cells (CD3, CD11b, and Gr-1); conditions: G-CSFR deficient mice
# LSK cells = assay: Chemotaxis assay; format: cell-based, mouse; conditions: CXCL12 120 ng/ml; UDP-Glc, UTP, UDP 10 μM; 6 hours
# [5] = tested on: long-term repopulating HSPCs; assay: Competitive repopulation and serial transplantation assays; format: in vivo, mice
# Procedure: (§2) The ratio of CD45.1/CD45.2 cells in recipient's peripheral blood was determined at various times after transplantation.
# as §2
# cathepsin G (CG) = assay: Zymographic analysis of bone marrow supernatants; format: in vivo, mice
# Procedure: (§3) FIG. 14A-14F. […] HSPC mobilization was assessed by measuring the numbers of LSK (upper left panel) and SLAM LSK (upper right panel) cells in peripheral blood. […] Representative images of TRAP staining from each group are shown (bottom panels). […] Shown are obtained from 6-8 weeks old animals. (C) Mice (B6) were injected as described in the legend to FIG. 11A. Bone marrow cells were collected from each treatment group and stained with indicated antibodies followed by flow cytometry analysis. The data are shown as mean values of three independent experiments with standard deviation. ** p<0.01. (D) Bone marrow mononuclear cells were isolated from B6 mice treated as above. To determine the protease activity, bone marrow supernatants harvested from indicated treatment groups were analyzed by zymogram analysis as described in the Methods section. The intensity of the zymogram bands (left panels) was analyzed utilizing densitometry and expressed as arbitrary units (right panels). Densitometric analyses are represented as the ratios to vehicle-treated group (CTL) set to 1. […] (E) Mice were treated as described in the legend to FIG. 13F. Expression levels of CXCR4 were determined in bone marrow (upper panel) and peripheral blood (lower panel) cells after gating on LSK or SLAM LSK subsets. Data are expressed as mean±SD from at least two independent experiments with four mice per group. […] Recipient mice were conditioned (11 Gy) 24 hours before injection of cells.
# MMP-9 = assay: Zymographic analysis of bone marrow supernatants; format: in vivo, mice
# Procedure: as §3
# neutrophil elastase (NE) = assay: Zymographic analysis of bone marrow supernatants; format: in vivo, mice
# Procedure: as §3
# [6] = percentage of gated cells within the total number, UDP-Glc 200 mg/kg 6 days, G-CSF 300 μg/kg 4 days
molecule,measurement,setting,value
O=c1ccn([C@@H]2O[C@H](COP(=O)([O-])OP(=O)([O-])O[C@H]3O[C@H](CO)[C@@H](O)[C@H](O)[C@H]3O)[C@@H](O)[C@H]2O)c(=S)[nH]1.[Na+].[Na+] [MRS 2690],potency relative to UDP-Glc,P2Y14 receptor [1],approximately 7 fold
"CC(=O)N[C@@H](CS)C(=O)O [NAC, N-acetyl-L-cysteine]",RANKL expression with NAC,RANKL,notably lowered
same,effect of NAC pretreatment on homing of UDP-Glc-mobilized cells,[2],inhibited by NAC pretreatment
same,UDP-Glc-induced osteoclastogenesis with NAC,osteoclasts,significantly suppressed with NAC treatment
same,effect of NAC on UDP-Glc-induced CXCR4 expression,CXCR4,"able to abrogate the increase of CXCR4 expression induced by UDP-Glc, albeit not completely"
same,effect of NAC on UDP-Glc-induced LSK / SLAM LSK cell mobilization,LSK and SLAM LSK cells; NAC 100 mg/kg/day s.c.,significantly abrogate the LSK and SLAM LSK cell mobilization induced by UDP-Glc; also recorded: significantly suppressed by NAC treatment
"O=c1ccn([C@@H]2O[C@H](COP(=O)(O)OP(=O)(O)O)[C@@H](O)[C@H]2O)c(=O)[nH]1 [UDP, uridine diphosphate]",agonist activity at the human P2Y14 receptor,P2Y14 receptor [3],potent agonist of the human P2Y14 receptor
same,"peripheral CD11b+, GR1+ and CD3+ cells in Csf3r−/− mice",[4],minimally affected
same,"LSK cells in the peripheral circulation, UDP alone",LSK and SLAM LSK cells; UDP 200 mg/kg s.c.,did not elicit any appreciable change in the number of LSK cells
same,effect of UDP on UDP-Glc-induced LSK cell mobilization,LSK and SLAM LSK cells; UDP 200 mg/kg with UDP-Glc 200 mg/kg,antagonized UDP-Glc-induced LSK cell mobilization
same,chemotactic migration of mouse LSK cells,LSK cells,could chemoattract LSK cells in vitro in the presence or absence of CXCL12
"O=c1ccn([C@@H]2O[C@H](COP(=O)(O)OP(=O)(O)OP(=O)(O)O)[C@@H](O)[C@H]2O)c(=O)[nH]1 [UTP, uridine-5′-triphosphate, reference compound]",chemotactic migration of mouse LSK cells,LSK cells,only a slight increase for mouse LSK cell migration with no statistical significance
"G-CSF: G-CSF (Neupogen, Amgen), most commonly used cytokine for mobilization of HSPCs (protein, chains of the INN, looked up) MTPLGPASSLPQSFLLKCLEQVRKIQGDGAALQEKLCATYKLCHPEELVLLGHSLGIPWAPLSSCPSQALQLAGCLSQLHSGLFLYQGLLQALEGISPELGPTLDTLQLDVADFATTIWQQMEELGMAPALQPTQGAMPAFASAFQRRAGGVLVASHLQSFLEVSYRVLRHLAQP","competitive repopulation, UDP-Glc- vs G-CSF-mobilized cells, early",[5]; one month following transplantation,considerable competitive advantage over UDP-Glc-mobilized cells
same,"competition in secondary recipients, bone marrow cells","[5]; serial transplantation, UDP-Glc (CD45.2) vs G-CSF (CD45.1)",completely out-competed by the cells derived from UDP-Glc mobilization
same,level of CG,cathepsin G (CG),Elevated levels
same,level of MMP-9,MMP-9,Elevated levels
same,level of NE,neutrophil elastase (NE),Elevated levels
same,LSK cells in mobilized peripheral blood,LSK and SLAM LSK cells; [6],0.058%
same,SLAM LSK cells in mobilized peripheral blood,LSK and SLAM LSK cells; [6],0.0014%
